Experimental data published in US8445502B2, “Pharmaceutical formulations comprising salts of a protein kinase inhibitor and methods of using same” (Astex Pharmaceuticals, Inc., priority 2007, dated 2013).
Where two headings read alike, the source gives them in different places.

Experiments:
[1] = Solubility of MP470 and its salts (Table 2); assay type: physicochemical
[2] = tested on: γ-H2AX levels in OVCAR-3 (ovarian carcinoma) cells; assay: DNA damage by γ-H2AX levels; assay type: cell-based; details: single agent 10 μM; control 0.5% DMSO medium
Method: OVCAR-3 (ovarian carcinoma) cells were treated with MP470 (10 μM), MP470.HCl (10 μM), and/or topotecan (10 μM).

A549 lung cancer cells = assay type: in vivo; details: for tumor growth rate: qd×5×3 wk (vehicle 43)
Method: MP470 and MP470 HCl were tested against different tumor types in athymic nude mice as summarized below (Table 8). Various formulations and routes were evaluated. HT-29 colorectal cancer cells and SB-CL2 melanoma cells were implanted subcutaneously, while A549 lung cancer cells, MiaPaCa-2 pancreatic cancer cells, TT medullary thyroid cancer cells, and OVCAR-3 ovarian cancer cells were implanted […] in the hind flank of mice. All animals were allowed to develop medium-sized (80-125 mg) tumors, before initiation of dosing. Tumor volume and mouse bodyweight were followed over the course of the study.
A549 Lung Cancer Model—In 40 nude mice implanted intradermally with A549 lung cancer cells, animals were dosed with vehicle orally, MP470 in 100% corn oil orally, or 5-FU in sterile saline IP. […] […] While MP470 reduced tumor growth rates, treatment of these cells with 5-FU reduced the overall tumor growth rate per day further to 19.5 mm3/d on Day 26.
To determine whether MP470.HCl in combination with carboplatin increased the anti-tumor activity in xenograft tumors growing in vivo, the agents were administered alone and in combination and tumor growth was monitored. MP470.HCl (50 mg/kg) was combined with carboplatin (30 mg/kg) alone or carboplatin with taxol (20 mg/kg).

[3] = tested on: Rad51 in cancer cell lines; assay: Rad51 Western blot after ionizing radiation; assay type: cell-based; details: cells pretreated with MP470
Source text: Similar to IR, the sensitivity of cancer cells to platinum-based drugs can be affected by the level of Rad51 protein.

[4] = Single-dose pharmacokinetics in rat (Table 10); assay type: in vivo
Source text: MP470 free base has a relative bioavailability of […] as compared to the HCl salt.

[5] = Acute intravenous toxicity in rat, second study; assay type: in vivo; details: single intravenous dose
Method: In the second IV administration study of MP470 free base, six groups of 6 rats were to be exposed to either vehicle alone or MP470 at 0.625, 1.25, 2.5, 5, or 10 mg/kg. Dosing was administered via a tail vein over approximately 30 minutes. Animals in each group were given a single intravenous dose of the test substance. Animals in the lowest dose group were dosed first, followed by at least a 10 minute period to observe any effects. If no effects were observed or if effects were observed but deemed acceptable the dosing went to the next highest dose using the same progression criteria. Progression was stopped when unacceptable, adverse effects (e.g., severe convulsions or death) occurred or when the highest dose was successfully administered without adverse effects. A control group (formulation vehicle: TV-13) was included for relevant comparison. […] Dosing occurred on Day 0 and termination on Day 4. On Day 4, the animals were sacrificed and subjected to complete, documented, gross necropsy.
Mortality (50%) occurred in the high dose group (10 mg/kg). […] Under the conditions of this study, a maximum tolerated acute dose in the rat for MP470 was determined to be 5 mg/kg. However, a ‘no observable adverse effect level’ could not be determined due to adverse observations apparently associated with vehicle administration.

OVCAR-3 cells = assay: OVCAR-3 cell proliferation; assay type: cell-based; details: Homo sapiens
Method: The IC50 for MP470.HCl on OVCAR-3 cells proliferation was 0.9 μM (FIG. 4). It appears to have a cytostatic effect on cancer cells in addition to being cytotoxic.

in vivo = details: rat; for severely toxic dose / severely toxic dose (STD): 28 days
Method: In a chronic tolerability study of MP470 hydrochloride salt in the rat, the animals were dosed 20, 60, 100 or 200 mg/kg/d (males) and 6, 20, 60 and 100 mg/kg/d (females) daily for 28 days. One female rat died after 5 doses at 100 mg/kg/d, however the it was not clear if this was related to the drug. Two additional female rats died on days 28 and 42 (control and 60 mg/kg/d) possibly due the trauma induced by repeated blood collection. There were no clinical signs of severe toxicity prior to deaths. The clinical abnormalities included hunched posture, soft feces and sporadic occurrence of hair loss. […] Although all animals gained weight during the study, the relative gain was lower in the males at 200 mg/kg/d (70% control) and females at 60 and 100 mg/kg/d (83 and 57% control). […] There were signs of recovery after cessation of dosing. There were no drug related adverse ophthalmologic effects or change hematology parameters. Significant clinical chemistry changes included decreases in glucose and triglyceride levels in males at 200 mg/kg/d, and alterations in cholesterol, troponin-1 and alkaline phosphatase in females (60 and 100 mg/kg/d). There was no correlative histopathology for these alterations. There were no drug related adverse changes in urinalysis or organ weight changes. There were sporadic alterations in organ weights but without corresponding microscopic pathology. […] There was adequate systemic exposure in both sexes; however the exposure was not dose-proportional (lower at higher doses). At all doses exposure to females was higher than that in males and exposure on day 27 was higher than that on day 1. There was substantial variability in the half-lives and ranged from 2 to 8 hours. The no observed effect level (NOEL) was 60 mg/kg/d (360 mg/m2/d) for males and 20 mg/kg/d (120 mg/m2/d) for females. In the absence of clear target organ toxicity or signs of severe toxicity a severely toxic dose (STD) could not be calculated. STD is likely to be higher than 100 mg/kg/d for females and 200 mg/kg/d for the males.

[6] = 50 mM PBS buffer, pH 7, aqueous buffer, 50 mM PBS buffer, pH 7, read-out: Solubility (50 mM PBS buffer, pH 7, Exp. 15)
[7] = water, read-out: Solubility in water
[8] = Rat, 100 mg/kg PO, Dry Blend, hydrochloride, 100 mg/kg

For `S=C(NCc1ccc2c(c1)OCO2)N1CCN(c2ncnc3c2oc2ccccc23)CC1` [MP470, 4-[1]benzofuro[3,2-d]pyrimidin-4-yl-N-(1,3-benzodioxol-5-ylmethyl)piperazine-1-carbothioamide], the Solubility [1, 6] was 1.22 µg/mL, the Solubility [1, 7] was 4.94 µg/mL and the “Increase in DNA damage (γ-H2AX) over control” value [2] was “did not cause DNA damage”. The “Outcome: tumor growth” value (A549 lung cancer cells; A549 lung, MP470 PO 50, 100, 200 mg/kg, (qd × 5) × 2 w, corn oil) was “no apparent dose relationship”, the tumor growth rate (A549 lung cancer cells; Day 26, 50 mg/kg oral in corn oil) was 28.3 mm3/d and the tumor growth rate (A549 lung cancer cells; Day 26, 100 mg/kg oral in corn oil) was 34.9 mm3/d. The tumor growth rate (A549 lung cancer cells; Day 26, 150 mg/kg oral in corn oil) was 28.1 mm3/d, the “Rad51 protein level after ionizing radiation” value [3] was “Rad51 remained near control levels even after exposure to IR” and the “Cmax” value ([4]; Rat, 100 mg/kg PO, Dry Blend) was 0.71 µg/mL. The “Tmax” value ([4]; Rat, 100 mg/kg PO, Dry Blend) was 11.3 h, the “AUC0→last” value ([4]; Rat, 100 mg/kg PO, Dry Blend, 100 mg/kg) was 7.91 µg·h/mL and the “AUC0→last” value ([4]; Rat, 100 mg/kg PO, Dry Blend, listed as MP470 (free base), 100 mg/kg) was 7.9 µg·h/mL. The bioavailability ([4]; in vivo, Rat, 100 mg/kg oral, dry powder blend, read-out: relative bioavailability as compared to the HCl salt) was 8% and the “maximum tolerated acute dose” value [5] was 5 mg/kg.
For `Cl.S=C(NCc1ccc2c(c1)OCO2)N1CCN(c2ncnc3c2oc2ccccc23)CC1` [MP470.HCl, 4-[1]benzofuro[3,2-d]pyrimidin-4-yl-N-(1,3-benzodioxol-5-ylmethyl)piperazine-1-carbothioamide hydrochloride], the Solubility [1, 6] was 3.28 µg/mL, the Solubility [1, 7] was 31.1 µg/mL and the IC50 (OVCAR-3 cells) was 0.9 µM. For the same molecule, the “Increase in DNA damage (γ-H2AX) over control” value [2] was “did not cause DNA damage”, the “Outcome: tumor growth” value (A549 lung cancer cells; A459 lung cancer, MP470.HCl PO 50 mg/kg, qd × 21, corn oil, hydrochloride, 50 mg/kg) was “Dose dependency” and the “AUC0→last” value ([4]; Rat, 3 mg/kg IV bolus, TV-10) was 18.81 µg·h/mL. The “Cmax” value ([4]; Rat, 3 mg/kg IV bolus, TV-10) was 8.53 µg/mL, the “Tmax” value ([4]; Rat, 3 mg/kg IV bolus, TV-10) was 0.02 h and the “AUC0→last” value ([4]; Rat, 100 mg/kg PO, Corn oil) was 73.35 µg·h/mL. For the same molecule, the “Cmax” value ([4]; Rat, 100 mg/kg PO, Corn oil) was 5.27 µg/mL, the “Tmax” value ([4]; Rat, 100 mg/kg PO, Corn oil) was 4.0 h and the “Cmax” value ([4]; Rat, 100 mg/kg PO, Dry Blend) was 7.19 µg/mL. The “Tmax” value ([4]; Rat, 100 mg/kg PO, Dry Blend) was 9.5 h, the “AUC0→last” value [4, 8] was 94.31 µg·h/mL and the “AUC0→last (μg · h/mL)” value [4, 8] was “about 94 μg · h/mL”. For the same molecule, the Tmax ([4]; Rat, 100 mg/kg orally, range over vehicles) was 4.0 to 9.5 h, the Cmax ([4]; in vivo, po, Rat, 100 mg/kg orally, range over vehicles, read-out: Cmax) was 4.6 to 7.2 µg/mL and the “t½β” value ([4]; rat, in vivo, iv, 3 mg/kg) was 0.36 h. For the same molecule, the half-life (in vivo; both sexes, rats, daily oral dosing 28 days, read-out: half-lives) was 2 to 8 h, the severely toxic dose (in vivo; female) was greater than 600 mg/m2/d and the “severely toxic dose (STD)” value (in vivo; female) was “higher than 100 mg/kg/d”. For the same molecule, the severely toxic dose (in vivo; male) was greater than 1200 mg/m2/d, the “severely toxic dose (STD)” value (in vivo; male) was greater than 200 mg/kg/day and the “cardiotoxicity (histopathology)” value (in vivo) was “no evidence of cardiotoxicity in either sex”.
